# Source: patent US12605402B2, “Therapeutic uses of oxidizing hypotonic acid solutions” (APR Applied Pharma Research SA, priority 2019, dated 2026)
# Where two headings read alike, the source gives them in different places.
# Legend:
# SARS-CoV-2 = format: cell-based; conditions: concentration 90% (solution), 63% (ethanol); for Virus Titer: virus control 3.5
smiles,measurement,setting,value
CCO [Ethanol],LRV (log reduction value) compared to the virus control,SARS-CoV-2; Contact Time 3 min,>1.8
same,Virus Titer,SARS-CoV-2; Contact Time 3 min,<1.7 Log10 CCID50 of virus per 0.1 mL
same,LRV (log reduction value) compared to the virus control,SARS-CoV-2; Contact Time <1 min,>1.8
same,Virus Titer,SARS-CoV-2; Contact Time <1 min,<1.7 Log10 CCID50 of virus per 0.1 mL
same,toxicity to cells,Vero 76 cells,toxic to cells
